{"source": "paper PMC11295857", "about": "(Malaria Journal, 2024)", "tested_on": "P. falciparum Dd2 strain", "assay_type": "cell-based, Plasmodium falciparum", "conditions": "single dose, 72 h in vitro treatment; Fig. 1B; normalized to non-treated cultures"}
{"substance": "poly-L-glutamate", "values": [{"measurement": "parasite growth inhibition (in words)", "value": "parasite growth inhibition was not observed"}]}
